According to patent publication US8163793B2, “Proline derivatives” (Hoffman-La Roche Inc., priority 2009, dated 2012):

Tests used:
Cathepsin S = Cathepsin S (UniProt P25774); assay: Cathepsin enzyme inhibition assay (fluorogenic peptide substrate Z-Val-Val-Arg-AMC), Cathepsin S; assay type: biochemical, human and mouse; conditions: enzyme 1 nM, substrate 20 μM, pH 6.5; read-out: CatS IC50
Summary of the method: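 Human or mouse cathepsin S (1 nM) was run in 100 mM potassium phosphate pH 6.5 with 5 mM EDTA, 0.001% Triton X-100 and 5 mM DTT. The rise in AMC fluorescence from cleavage was measured, and IC50 values were calculated by standard methods and expressed in μM.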

Cat L = Cat L (UniProt P07711); assay: Cathepsin enzyme inhibition assay (fluorogenic peptide substrate Z-Val-Val-Arg-AMC), Cathepsin L; assay type: biochemical, human and mouse; conditions: enzyme 1 nM, substrate 20 μM, pH 6.5; read-out: CatL IC50
Summary of the method: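 Cathepsin L at 1 nM was mixed with compound, then started with 20 μM Z-Val-Val-Arg-AMC in pH 6.5 potassium phosphate with EDTA, Triton X-100 and 5 mM DTT. AMC fluorescence (ex 360/em 465 nm) was followed over 20 min. IC50 is given in μM.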

Row | Structure (SMILES) | IC50 (Cathepsin S) [nM] | IC50 (Cat L) [nM]
1 | N#CC1(NC(=O)[C@@H]2C[C@@H](S(=O)(=O)c3ccc(OCC(F)(F)F)cc3Cl)CN2C(=O)C2(c3ccc(C(F)(F)F)cc3)CC2)CC1 [Example 310, (2S,4R)-4-[2-Chloro-4-(2,2,2-trifluoro-ethoxy)-benzenesulfonyl]-1-[1-(4-trifluoromethyl-phenyl)-cyclopropanecarbonyl]-pyrrolidine-2-carboxylic acid (1-cyano-cyclopropyl)-amide] | 0.26 | 220
2 | CC(=O)N1C[C@H](S(=O)(=O)c2ccc(-n3ccnc3)cc2C(F)(F)F)C[C@H]1C(=O)NC1(C#N)CC1 [Example 112, (2S,4R)-1-Acetyl-4-(4-imidazol-1-yl-2-trifluoromethyl-benzenesulfonyl)-pyrrolidine-2-carboxylic acid (1-cyano-cyclopropyl)-amide] | 0.8 | ≥ 25000
3 | Cc1cc(N2C[C@H](S(=O)(=O)c3ccc(F)cc3C(F)(F)F)C[C@H]2C(=O)NC2(C#N)CC2)n(C2CCOCC2)n1 [Example 396, (2S,4R)-4-(4-Fluoro-2-trifluoromethyl-benzenesulfonyl)-1-[5-methyl-2-(tetrahydro-pyran-4-yl)-2H-pyrazol-3-yl]-pyrrolidine-2-carboxylic acid (1-cyano-cyclopropyl)-amide] | 1.65 | 57500
4 | CN1CCN(c2ccc(S(=O)(=O)[C@@H]3C[C@@H](C(=O)NC4(C#N)CC4)N(C(=O)C4(C(F)(F)F)CC4)C3)c(C(F)(F)F)c2)CC1 [Example 260, (2S,4R)-4-[4-(4-Methyl-piperazin-1-yl)-2-trifluoromethyl-benzenesulfonyl]-1-(1-trifluoromethyl-cyclopropanecarbonyl)-pyrrolidine-2-carboxylic acid (1-cyano-cyclopropyl)-amide] | 0.245 | 16500
5 | N#CC1(NC(=O)[C@@H]2C[C@@H](S(=O)(=O)c3ccccc3C(F)(F)F)CN2C(=O)C2(c3ccc(Cl)cc3)CC2)CC1 [Example 202, (2S,4R)-1-[1-(4-Chloro-phenyl)-cyclopropanecarbonyl]-4-(2-trifluoromethyl-benzenesulfonyl)-pyrrolidine-2-carboxylic acid (1-cyano-cyclopropyl)-amide] | 0.1 | 606
6 | C[C@H](Oc1ccc(S(=O)(=O)[C@@H]2C[C@H](C(=O)NC3(C#N)CC3)N(C(=O)C(C)(C)C)C2)c(Cl)c1)C(F)(F)F [Example 204, (2R,4R)-4-[2-Chloro-4-((S)-2,2,2-trifluoro-1-methyl-ethoxy)-benzenesulfonyl]-1-(2,2-dimethyl-propionyl)-pyrrolidine-2-carboxylic acid (1-cyano-cyclopropyl)-amide] | 205 | ≥ 25000
7 | N#CC1(NC(=O)[C@@H]2C[C@@H](S(=O)(=O)c3ccccc3Cl)CN2C(=O)c2ccc(F)cc2)CC1 [Example 76, (2S,4R)-4-(2-Chloro-benzenesulfonyl)-1-(4-fluoro-benzoyl)-pyrrolidine-2-carboxylic acid (1-cyano-cyclopropyl)-amide] | 1.4 | 8800
8 | N#CC1(NC(=O)[C@@H]2C[C@@H](S(=O)(=O)c3ccc(OCC(F)(F)F)cc3Cl)CN2C(=O)C2(c3cccc(Cl)c3)CC2)CC1 [Example 331, (2S,4R)-1-[1-(3-Chloro-phenyl)-cyclopropanecarbonyl]-4-[2-chloro-4-(2,2,2-trifluoro-ethoxy)-benzenesulfonyl]-pyrrolidine-2-carboxylic acid (1-cyano-cyclopropyl)-amide] | 0.18 | 1050
9 | N#CC1(NC(=O)[C@@H]2C[C@@H](S(=O)(=O)c3ccccc3Cl)CN2CC(F)(F)C(F)(F)F)CC1 [Example 92, (2S,4R)-4-(2-Chloro-benzenesulfonyl)-1-(2,2,3,3,3-pentafluoro-propyl)-pyrrolidine-2-carboxylic acid (1-cyano-cyclopropyl)-amide] | 41 | 61700
10 | N#CC1(NC(=O)[C@H]2C[C@H](S(=O)(=O)c3ccc(OCC(F)(F)F)cc3Cl)CN2C(=O)C2(C(F)(F)F)CC2)CC1 [Example 280, (2R,4S)-4-[2-Chloro-4-(2,2,2-trifluoro-ethoxy)-benzenesulfonyl]-1-(1-trifluoromethyl-cyclopropanecarbonyl)-pyrrolidine-2-carboxylic acid (1-cyano-cyclopropyl)-amide] | 24.5 | 46500
11 | CC(C)C[C@]1(C(=O)NC2(C#N)CC2)C[C@H](S(=O)(=O)c2ccccc2)[C@@H](c2ccc(F)cc2)N1 [Example 126, (2R,4S,5R)-4-Benzenesulfonyl-5-(4-fluoro-phenyl)-2-isobutyl-pyrrolidine-2-carboxylic acid (1-cyano-cyclopropyl)-amide] | 1250 | ≥ 25000
12 | COC(=O)c1ccc(C(=O)N2C[C@H](S(=O)(=O)c3ccccc3C(F)(F)F)C[C@H]2C(=O)NCC#N)cc1 [Example 137, 4-[(2S,4R)-2-(Cyanomethyl-carbamoyl)-4-(2-trifluoromethyl-benzenesulfonyl)-pyrrolidine-1-carbonyl]-benzoic acid methyl ester] | 1 | ≥ 25000
13 | CC1(C(=O)N2C[C@H](S(=O)(=O)c3ccc(Cl)cc3Cl)C[C@H]2C(=O)NC2(C#N)CC2)CC1 [Example 222, (2S,4R)-4-(2,4-Dichloro-benzenesulfonyl)-1-(1-methyl-cyclopropanecarbonyl)-pyrrolidine-2-carboxylic acid (1-cyano-cyclopropyl)-amide] | 1.2 | 18600
14 | Cc1ccc(C2(C(=O)N3C[C@H](S(=O)(=O)c4ccc(OCC(F)(F)F)cc4Cl)C[C@H]3C(=O)NC3(C#N)CC3)CC2)cc1 [Example 304, (2S,4R)-4-[2-Chloro-4-(2,2,2-trifluoro-ethoxy)-benzenesulfonyl]-1-(1-p-tolyl-cyclopropanecarbonyl)-pyrrolidine-2-carboxylic acid (1-cyano-cyclopropyl)-amide] | 0.445 | 805
15 | N#CCNC(=O)[C@@H]1C[C@@H](S(=O)(=O)c2ccccc2C(F)(F)F)CN1C(=O)c1ccccc1 [Example 71, (2S,4R)-1-Benzoyl-4-(2-trifluoromethyl-benzenesulfonyl)-pyrrolidine-2-carboxylic acid cyanomethyl-amide] | 0.5 | ≥ 25000
16 | CC(C)(C)OC(=O)N1C[C@H](S(=O)(=O)c2ccc(Br)cc2C(F)(F)F)C[C@H]1C(=O)NC1(C#N)CC1 [Example 7, (2S,4R)-4-(4-Bromo-2-trifluoromethyl-benzenesulfonyl)-2-(1-cyano-cyclopropylcarbamoyl)-pyrrolidine-1-carboxylic acid tert-butyl ester] | 2.7 | ≥ 25000
17 | CC(C)(C)OC(=O)N1C[C@H](S(=O)(=O)c2ccc(Cl)cc2OCC(F)(F)F)C[C@H]1C(=O)NC1(C#N)CC1 [Example 221, (2S,4R)-4-[4-Chloro-2-(2,2,2-trifluoro-ethoxy)-benzenesulfonyl]-2-(1-cyano-cyclopropylcarbamoyl)-pyrrolidine-1-carboxylic acid tert-butyl ester] | 130 | ≥ 25000
18 | N#CC1(NC(=O)[C@H]2CC(S(=O)(=O)c3ccc(OCC(F)(F)F)cc3Cl)CN2)CC1 (stereo partly drawn) [Example 173, (R)-4-[2-Chloro-4-(2,2,2-trifluoro-ethoxy)-benzenesulfonyl]-pyrrolidine-2-carboxylic acid (1-cyano-cyclopropyl)-amide] | 5.9 | 27300
